# Assay results published in patent US20070078085A1, “Methods and compositions for the utilization and targeting of osteomimicry” (priority 2004, published 2007).
# d = 2'-deoxy (DNA)
# Experiments:
# [1] = system: human prostate cancer cell lines; experiment: In vitro cell proliferation assay, prostate cancer cells; type: cell-based; conditions: for cell proliferation: Neo and b2M-overexpressed C4-2B clones, siRNA
# Experimental: LNCaP, C4-2B, DU145, PC3, MG63 and ARCaP cell lines were seeded in 96-well plates in T-medium containing 5% FBS, respectively. After 24 h incubation, media were replaced by fresh, serum-free T-medium and incubated for an additional 24 h. […] Cell numbers were measured every 24 h using CellTiter 96® AQueous One Solution Cell Proliferation Assay (Promega, Madison, Wis.).
# [2] = system: b2M; experiment: b2M expression in C4-2B clones after siRNA; type: cell-based, human; conditions: Neo and b2M-overexpressed C4-2B clones
# Experimental: Total RNA was isolated from the confluent monolayer of cells using RNAZol B (Teltest Inc., Friendswood, Tex.). The total RNA was used as template for RT according to the manufacturer's instruction (Invitrogen). […] RT-PCR products were analyzed by 1.2% agarose gel electrophoresis.
# (§1) Western blotting was performed using the NOVEX system (Invitrogen). […] Detection of protein bands was performed with ECL Western Boltting Detection Reagents (Amersham Biosciences Corp.).
# The β2M- and control scramble-siRNA sequences were 5′-[…](dT)(dT)-3′ and 5′-[…](dT)(dT)-3′, respectively. For RNA delivery system, we used cationic liposome formulation, termed SN {Zou, 2002#68} to deliver β2M- and scramble-siRNA into cell lines or mice. The ratio of siRNA (μg) to SN (μl) was 1:24. […] To assay of anti-tumor activity of β2M-siRNA therapeutic efficacy, the real-time bioluminescence image by the CCD camera cryogenically cooled IVIS system with analysis software (Xenogen Corp., Alameda Calif.) (Ref) and serum PSA levels were used to monitored PC3-Luc and C4-2 tumor burden in nude mice.
# [3] = system: PC3-Luc tumor; experiment: Subcutaneous bone powder PC3-Luc tumors, intratumoral siRNA-liposome, bioluminescence imaging; type: in vivo, athymic nu/nu mice; conditions: intratumoral 0.8 μg siRNA three-time per week, four weeks, 28 days
# Excerpt: (§2) The β2M- and control scramble-siRNA sequences were 5′-[…](dT)(dT)-3′ and 5′-[…](dT)(dT)-3′, respectively. For RNA delivery system, we used cationic liposome formulation, termed SN {Zou, 2002#68} to deliver β2M- and scramble-siRNA into cell lines or mice. The ratio of siRNA (μg) to SN (μl) was 1:24. To test prostate tumor growth inhibition by β2M-siRNA, four weeks old male athymic nu/nu mice were inoculated into the subcutaneous space of the chest regions with 2×10^6 cells of PC3-Luc or C4-2 mixed with 20 mg of bone powder (kindly provided by Dr. A. H. Reddi, University of California, Davis, Sacramento, Calif.) and 35 μl of Matrigel matrix (BD Bioscience, Bedford Mass.), respectively. Three (PC3-Luc) or four (C4-2) weeks later, the tumor-bearing mice were randomly divided into two groups. The mice in the treatment group received intratumoral injection of SN-β2M-siRNA for three-time per week continuously four weeks, at a dose of 0.8 μg of siRNA mixed with 19.2 μl of SN for each mouse. The control group injected with the same dose of SN-scramble-siRNA. To assay of anti-tumor activity of β2M-siRNA therapeutic efficacy, the real-time bioluminescence image by the CCD camera cryogenically cooled IVIS system with analysis software (Xenogen Corp., Alameda Calif.) (Ref) and serum PSA levels were used to monitored PC3-Luc and C4-2 tumor burden in nude mice.
# [4] = system: C4-2-Luc tumor; experiment: Subcutaneous bone powder C4-2-Luc tumors, intratumoral siRNA-liposome, serum PSA; type: in vivo, athymic nu/nu mice; conditions: intratumoral 0.8 μg siRNA three-time per week, four weeks, 28 days
# Excerpt: as §2
# [5] = system: AR; experiment: Western blot of AR in siRNA-infected C4-2B cells; type: cell-based, human; conditions: retrovirally infected C4-2B cells
# Experimental: (§3) FIG. 14. Western blot analysis of parental C4-2B (P), b2M-siRNA (siRNA) and scramble-siRNA (Scramble) retrovirally infected cells. Note AR and PSA expression were abolished by b2M-siRNA in C4-2B cells. EFIa was used as loading control.
# as §1
# [6] = system: PSA; experiment: Western blot of PSA in siRNA-infected C4-2B cells; type: cell-based, human; conditions: retrovirally infected C4-2B cells
# Experimental: as §3, §1
# [7] = system: C4-2B cells; experiment: Adhesion assay on ECM-coated 96-well plates; type: cell-based, human; conditions: β2M siRNA vs scramble siRNA
# Excerpt: FIG. 13. Adhesion assay of b2M-siRNA and scramble-siRNA infected C4-2B cells using 96-well plate pre-coated with Col I, LM, FN and Col IV. BSA was used as control (Con). *, p<0.05, **, p<0.005.
# Cell attachment to BSA coated wells served as an internal control (Con).
# [8] = system: OC mRNA; experiment: Semi-quantitative RT-PCR of endogenous OC mRNA; type: cell-based, human; conditions: FSK 10^−6 M, 12 h
# Experimental: (§4) Reverse Transcription-Polymerase Chain Reaction (RT-PCR) Analysis. Total RNA was isolated from confluent monolayers of cells using RNAZol B (Teltest Inc., Friendswood, Tex.). Five μg of total RNA was used as template and 0.15 μg of random hexanucleotide primers were added for reverse transcription and amplification in a reaction volume of 20 μl, according to the manufacturer's instruction (Invitrogen, Carlsbad, Calif.). After RT reaction, 3-5 μl of the 1st-strand cDNA was used for PCR with a PTC-100 programmable Thermal Controller (MJ Research Inc.). The oligonucleotide primer sets used for PCR analysis of cDNA are: hOC, 5′-[…]-3′ (forward) and 5′-[…]-3′ (reverse); hBSP, 5′-[…]-3′ (forward) and 5′-[…]-3′ (reverse); and glyceraldehyde phosphate dehydrogenase (GAPDH), 5′-[…]-3′ (forward) and 5′-[…]-3′ (reverse), respectively. The thermal profile for hOC amplification is 30 cycles starting with denaturation 1 min at 94° C., followed by 1 min of annealing at 55° C. and 1 min of extension at 72° C. For hBSP amplification the thermal profile is 35 cycles starting with denaturation 1 min at 94° C., followed by 30 s of annealing at 48° C. and 40 s of extension at 72° C. The program for GAPDH amplification is 25 cycles starting with denaturation 30 s at 94° C., followed by 30 s of annealing at 60° C. and 1 min of extension at 72° C. The RT-PCR products were analyzed by 1.2% agarose gel electrophoresis. Quantity one-4.1.1 Gel Doc gel documentation software (Bio-Rad) or NIH image were used for quantification of hOC and hBSP mRNA expression normalized by GAPDH mRNA expression.
# [9] = system: BSP mRNA; experiment: Semi-quantitative RT-PCR of endogenous BSP mRNA; type: cell-based, human; conditions: FSK 10^−6 M, 12 h
# Experimental: as §4
# [10] = system: hOC promoter; experiment: hOC promoter-luciferase reporter activity in transfected cells; type: cell-based, human; conditions: C4-2B cells, 16 h
# Excerpt: Plasmid Construction. Genomic DNA was used in the PCR of the 0.8-kb hOC promoter inserting KpnI and XhoI sites, subsequently cloned into pGL3-Basic-luciferase reporter vector (Promega, Madison, Wis.) as described before (9). The deletion constructs, ΔA [374 bp upstream of AP1/VDRE (AV) element], ΔTst-1 (POU-factor Tst-1/Oct-6 binding site), ΔCRE (cAMP-responsive element) and ΔIRF-1 (interferon regulatory factor-i binding site) in hOC promoter/pGL3 were generated by recombinant PCR technique. The point mutation plasmids in CRE (from -643 to -636 in hOC promoter, 5′-[…]-3′) were constructed with a QuikChange Site-Directed Mutagenesis Kit (Stratagene). The mutation constructs (see below) are one-point substitution mutants, Mut1 (-642 G→T), Mut2 (-641 A→C), Mut3 (-640 C→A), Mut4 (-639 C→A) and Mut5 (-638 T→G), a two-point substitution mutant, Mut6 (-640 and -639 CC→AA), and a two-point deletion construct, Mut7 (-640 and -639 CC→XX). The 1.5-kb hBSP promoter construct prepared in the pGL3-luciferase reporter vector has been described previously (36). The single deletion constructs ΔCRE1 (-79 to -72) and ΔCRE2 (-674 to -667), and a double deletion construct ΔCRE2/CRE1 in the hBSP promoter/pGL3-luciferase plasmid were generated by recombinant PCR technique. All plasmid constructs were confirmed by DNA sequencing.
# Transfection and Luciferase Activity Assay. Cells were trypsinized and seeded at a density of 1.5×10^5 cells/well (LNCaP, C4-2B, DU145 and ARCaP) and 1.0×10^5 cells/well (PC3 and MG63) in 12-well plates 24 h before transfection. Plasmid DNAs were introduced into cells by complexing with a commercial reagent DOTAP (Roche Molecular Biochemicals) according to the manufacturer's protocol. Each transfection reaction contained 1.25 μg of tested DNA constructs and 0.25 μg of the transfection efficiency control CMV promoter-driven β-galactosidase plasmid DNA. After 6 h transfection, DNA-liposome mixtures were replaced by fresh T-medium or CM. Tansfected cells were harvested and lysed in 1× Reporter Lysis buffer (Promega) after 36 h additional incubation. Cell lysates were vortexed for 15 s and spun for 10 min. For luciferase activity assay, 20 μl of the lysate supernatant was mixed with 100 μl of the luciferase substrate (Promega) and detected by a luminometer (Monolight 3010, luminometer PharMingen, San Diego, Calif.). For β-galactosidase activity assay, 100 μl of the supernatant was mixed with 100 μl of 2×β-galactosidase substrate [200 mM sodium phosphate buffer, pH 7.3, 2 mM MgCl2, 100 mM β-mercaptoethanol and 1.33 mg/ml o-nitrophenyl-β-D-galactopyranoside (ONPG)], and incubated at 37° C. for 30 min. β-galactosidase activity was detected by Microplate spectrophotometer (Molecular Devices Corp., Sunnyvale, Calif.) at 405 nm wavelength. Data were presented as normalized luciferase activity (means±standard deviations), defined as luciferase activity normalized to internal control β-galactosidase activity for transfection efficiency. All studies were performed in three independent experiments with duplicate assays.
# [11] = system: hBSP promoter; experiment: hBSP promoter-luciferase reporter activity in transfected cells; type: cell-based, human; conditions: C4-2B cells; db cAMP 10^−6 to 10^−3 M, FSK 10^−8 to 10^−5 M; 16 h; concentration-dependent
# Excerpt: Plasmid Construction. Genomic DNA was used in the PCR of the 0.8-kb hOC promoter inserting KpnI and XhoI sites, subsequently cloned into pGL3-Basic-luciferase reporter vector (Promega, Madison, Wis.) as described before (9). The deletion constructs, ΔA [374 bp upstream of AP1/VDRE (AV) element], ΔTst-1 (POU-factor Tst-1/Oct-6 binding site), ΔCRE (cAMP-responsive element) and ΔIRF-1 (interferon regulatory factor-i binding site) in hOC promoter/pGL3 were generated by recombinant PCR technique. The point mutation plasmids in CRE (from -643 to -636 in hOC promoter, 5′-[…]-3′) were constructed with a QuikChange Site-Directed Mutagenesis Kit (Stratagene). […]
# Transfection and Luciferase Activity Assay. […] For luciferase activity assay, 20 μl of the lysate supernatant was mixed with 100 μl of the luciferase substrate (Promega) and detected by a luminometer (Monolight 3010, luminometer PharMingen, San Diego, Calif.). For β-galactosidase activity assay, 100 μl of the supernatant was mixed with 100 μl of 2×β-galactosidase substrate [200 mM sodium phosphate buffer, pH 7.3, 2 mM MgCl2, 100 mM β-mercaptoethanol and 1.33 mg/ml o-nitrophenyl-β-D-galactopyranoside (ONPG)], and incubated at 37° C. for 30 min. β-galactosidase activity was detected by Microplate spectrophotometer (Molecular Devices Corp., Sunnyvale, Calif.) at 405 nm wavelength. […]
compound,measurement,setting,value
"5′-UUCAUGUGUCUGUGGUGUU(dT)(dT)-3′ (siRNA; RNA, 3' dTdT, backbone not given here; scramble control, delivered in cationic liposome formulation SN) [scramble-siRNA]",cell proliferation,[1],did not affect
same,b2M expression,[2],did not affect
same,"growth of pre-established PC3-Luc tumors, Luc-imaging (BLI)",[3],not
same,"growth of pre-established C4-2-Luc tumors, serum PSA",[4],not
same,AR protein expression,[5],not
same,PSA protein expression,[6],not
"5′-UUGCUAUGUGUCUGGGUUU(dT)(dT)-3′ (siRNA; RNA, 3' dTdT, backbone not given here; delivered in cationic liposome formulation SN) [b2M-siRNA]",cell proliferation,[1],inhibited
same,growth of prostate cancer cells in vitro and tumor growth in bone on blocking β2M signaling,[1]; preliminary investigations,greatly attenuated
same,b2M expression,[2],inhibited
same,cell attachment to collagen I (Col I),[7],no significant difference
same,cell attachment to collagen IV (Col IV),[7],decreased attachment
same,cell attachment to fibronectin (FN),[7],no significant difference
same,cell attachment to laminin (LM),[7],no significant difference
same,AR protein expression,[5],abolished
same,PSA protein expression,[6],abolished
"C=C[C@@]1(C)CC(=O)[C@]2(O)[C@@]3(C)[C@@H](O)CCC(C)(C)[C@@H]3[C@H](O)[C@H](OC(C)=O)[C@@]2(C)O1 [FSK, forskolin]","steady-state level of OC mRNA, fold elevation",[8]; C4-2B cells,7.8 fold
same,"steady-state level of OC mRNA, fold elevation",[8]; LNCaP cells,5.2 fold
same,"level of BSP mRNA, fold increase",[9]; C4-2B cells,5.4 fold
same,"level of BSP mRNA, fold increase",[9]; LNCaP cells,3.2 fold
"CCCCCCCCCCCCCC(=O)O[C@@H]1[C@@H](C)[C@@]2(O)[C@@H](C=C(CO)C[C@]3(O)C(=O)C(C)=C[C@@H]23)[C@@H]2C(C)(C)[C@]12OC(C)=O [PMA, phorbol 12-myristate 13-acetate]","hOC promoter activity, induction by PKC pathway activator",[10]; PMA 10^−6 M,induced hOC promoter activity to a lesser extent
"CCCC(=O)Nc1ncnc2c1ncn2[C@@H]1O[C@@H]2COP(=O)(O)O[C@H]2[C@H]1OC(=O)CCC [db cAMP, dibutyryl 3′,5′-cyclic AMP]","hOC promoter activity, effect of PKA pathway activators","[10]; db cAMP 10^−6 to 10^−3 M, FSK 10^−8 to 10^−5 M, concentration-dependent",stimulated
same,"hBSP promoter activity, effect of PKA pathway activators",[11],stimulated
